Results from the supplement of paper PMC10307832.

Experiments:
Experiment in all cases: relative viability (nuclei count vs DMSO), 5 days (fraction); higher = more cells survive
[1] = compound: COc1cc2nccc(Oc3ccc(NC(=O)C4(C(=O)Nc5ccc(F)cc5)CC4)cc3)c2cc1OC [Cabozantinib] + C[C@@H](Oc1cc(-c2cnn(C3CCNCC3)c2)cnc1N)c1c(Cl)ccc(F)c1Cl [Crizotinib] (partner 1 µM)
In short: (§1)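 Nuclei were stained with Hoechst during a one-step fixation (final 0.05% Triton X-100, 1% formaldehyde, 1 ug/ml Hoechst) carried out 5 days after dosing, then counted on 4× images. The cells, lung cancer lines in 1536-well plates, had been dosed by pin tool the day after seeding with one drug alone or a fixed anchor-drug dose plus five library-drug doses (not always all listed) in √10 steps. Relative viability is the nuclei count in treated wells divided by that in vehicle wells, and each value is the median of duplicate plates.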

[2] = compound: COc1cc2nccc(Oc3ccc(NC(=O)C4(C(=O)Nc5ccc(F)cc5)CC4)cc3)c2cc1OC [Cabozantinib] + O=C(CCCCCCC(=O)Nc1ccccc1)NO [Vorinostat] (partner 1 µM)
In short: as §1

[3] = compound: COc1cc2nccc(Oc3ccc(NC(=O)C4(C(=O)Nc5ccc(F)cc5)CC4)cc3)c2cc1OC [Cabozantinib] + Nc1ncn([C@H]2C[C@H](O)[C@@H](CO)O2)c(=O)n1 [Decitabine] (partner 2 µM)
In short: as §1

[4] = compound: O[C@@H](COc1cccc2ncccc12)CN1CCN([C@@H]2c3ccccc3[C@@H]3[C@H](c4ccccc42)C3(F)F)CC1 [Zosuquidar] + O=C(CCCCCCC(=O)Nc1ccccc1)NO [Vorinostat] (partner 1 µM)
In short: as §1

Cell Line	relative viability ([1]; first compound 0.06325 µM)	relative viability ([1]; first compound 0.2 µM)	relative viability ([1]; first compound 0.6325 µM)	relative viability ([1]; first compound 2 µM)	relative viability ([2]; first compound 0.02 µM)	relative viability ([2]; first compound 0.06325 µM)	relative viability ([2]; first compound 0.2 µM)	relative viability ([2]; first compound 0.6325 µM)	relative viability ([2]; first compound 2 µM)	relative viability ([3]; first compound 0.02 µM)	relative viability ([3]; first compound 0.06325 µM)	relative viability ([3]; first compound 0.2 µM)	relative viability ([3]; first compound 0.6325 µM)	relative viability ([3]; first compound 2 µM)	relative viability ([4]; first compound 0.01 µM)	relative viability ([4]; first compound 0.03162 µM)	relative viability ([4]; first compound 0.3162 µM)	relative viability ([4]; first compound 1 µM)	relative viability ([1]; first compound 0.02 µM)	relative viability ([4]; first compound 0.1 µM)
LCLC-97TM1	0.354	0.49	0.365	0.306	0.24	0.823	0.739	0.781	0.751	0.24	0.262	0.252	0.265	0.21	0.663	0.929	0.73	0.777		
LU99A	0.607	0.592	0.567	0.527	0.413	0.524	0.574	0.456	0.647	0.843	1.01	0.854	0.787	0.882	0.476	0.423	0.618	0.544	0.585	0.463
NCI-H1299	0.998	0.648	0.973	0.993															0.977	
NCI-H1355	1.16	1.09	1.05	1.15	0.659	0.754	0.6	0.635	0.625	0.401	0.372	0.33	0.363	0.367	0.621	0.644	0.652	0.669	1.11	0.602
HARA	1.17	1.09	0.957	1.09	0.576	0.52		0.529	0.489	0.556	0.653		0.812	0.786	0.657	0.526	0.556	0.459	1.22	0.606
LXF-289	0.857	0.392	0.805	0.818	0.755	0.765	0.659	0.738	0.756	0.353	0.395	0.392	0.433	0.377	0.727	0.759	0.788	0.78	0.858	0.72
201T	1.02	0.988	0.956	0.976	0.77	1.03	0.962	0.932	0.969	0.874	0.945	0.839	0.836	0.826	0.886	0.942	0.997	0.962	1.04	0.799
HCC-827	0.942		0.939	0.978	0.837	1.05		0.785	0.526	0.28	0.362		0.36	0.309	0.761	0.786	0.849	0.999	0.888	0.714
NCI-H1703	0.296	0.172	0.249	0.175																
NCI-H1975	1.05	0.948	1.09	0.83	0.754	0.833	0.773	0.728	0.651	0.406	0.399	0.412	0.418	0.327	0.745	0.681	0.746	0.751	1.09	0.75
NCI-H2023	0.755	0.714	0.601	0.724	0.608	0.623	0.599	0.648	0.594	0.261	0.235	0.239	0.234	0.24	0.529	0.837	0.732	0.541	0.746	0.596
ChaGo-K-1	1.3	1.18	1.13	1.09	0.741	0.81	0.704	0.72	0.772	0.551	0.52	0.549	0.534	0.547	0.741	0.657	0.781	0.733	1.24	0.796
COR-L 105	1.03		0.659	0.561	0.847	1.05	0.734	0.839	0.89	0.606	0.764	0.582	0.735	0.69	0.961	0.826	0.891	0.875	0.653	0.777
SK-MES-1	1.14	1.02	1.03	0.825	1.06	1.27	1.16	1.11	1.16	0.449	0.412	0.373	0.431	0.399	1.03	1.06	1.13	1.18	1.13	0.929
A549	0.853	0.787	0.79	0.729						0.298	0.26	0.263	0.313	0.306					0.812	
NCI-H23	0.634	0.503	0.473	0.413		0.794	0.553	0.631	0.551		0.348	0.337	0.303	0.327	0.536		0.695	0.662		0.57
NCI-H1993	1.04	0.682	0.856	0.884	0.553	0.723	0.63	0.64	0.831	0.71	0.681	0.519	0.576	0.458	0.958	0.603	0.835	0.885	0.798	
Calu-6	0.925	0.742	0.75	0.773															0.788	

Cell Line	relative viability ([1]; first compound 0.06325 µM)	relative viability ([1]; first compound 0.2 µM)	relative viability ([1]; first compound 0.6325 µM)	relative viability ([1]; first compound 2 µM)	relative viability ([2]; first compound 0.02 µM)	relative viability ([2]; first compound 0.06325 µM)	relative viability ([2]; first compound 0.2 µM)	relative viability ([2]; first compound 0.6325 µM)	relative viability ([2]; first compound 2 µM)	relative viability ([3]; first compound 0.02 µM)	relative viability ([3]; first compound 0.06325 µM)	relative viability ([3]; first compound 0.2 µM)	relative viability ([3]; first compound 0.6325 µM)	relative viability ([3]; first compound 2 µM)	relative viability ([4]; first compound 0.01 µM)	relative viability ([4]; first compound 0.03162 µM)	relative viability ([4]; first compound 0.3162 µM)	relative viability ([4]; first compound 1 µM)	relative viability ([1]; first compound 0.02 µM)	relative viability ([4]; first compound 0.1 µM)
NCI-H1648					0.425	0.589		0.55	0.408	0.469	0.524		0.532	0.516	0.423	0.422	0.387	0.434		0.242
NCI-H460	0.895	0.902	0.926	0.929	0.893	0.818	0.68	0.635	0.741	0.509	0.477	0.724	0.51	0.486	0.658	0.747	0.776	0.739	1.01	0.687
NCI-H3122	0.301	0.271	0.297	0.309	0.992	1	1.07	1.11	1.02	0.394	0.413	0.422	0.411	0.467	0.984	1.03	1.07	1.07	0.272	0.894
HCC-44	0.85	0.841	0.834	0.85	1.1	1.29	1.08	1.14	1.08	0.908	0.996	0.981	1	0.987	1.1	1.18	1.12	1.05	0.855	1.18
HCC-78	0.356	0.288	0.351	0.318		0.415	0.394	0.344	0.295		0.704	0.503	0.489	0.487	0.465		0.512	0.402	0.326	
COR-L23	0.791	0.716	0.621	0.544	0.367	0.692	0.431	0.407	0.417	0.449	0.371	0.445	0.441	0.419	0.493	0.515	0.517	0.509	0.73	0.472
NCI-H2228	0.496	0.505	0.403	0.315	0.732	1.05	0.763	0.74	0.707						0.972	0.61	0.895	0.869	0.581	0.935
NCI-H2342					0.735	0.776	0.697	0.798	0.724	0.642	0.832	0.765	0.788	0.544	0.753	0.807	0.813	0.81		0.686
NCI-H1792	1.1	0.999	0.962	1.03							0.557	0.609	0.588	0.444					0.841	
NCI-H1563	1.03	0.904	0.77	0.802															0.948	
NCI-H522					0.737	1.01	1.03	0.902	0.902	0.577	0.655	0.564	0.74	0.654	0.909	0.796	0.887	0.871		0.927
SW 900					0.521	0.678	0.411	0.515	0.464	0.44	0.508	0.412	0.475	0.556	0.431	0.464	0.567	0.527		
CAL-12T	0.753	0.634	0.611	0.429	0.849	0.673	0.801	0.822	0.833						0.843	0.692	0.813	0.845	0.724	0.77
EBC-1	0.173	0.182	0.198	0.213															0.194	
NCI-H1395					0.623	0.831	0.703	0.685	0.656	0.786	0.741	0.682	0.713	0.654	0.746	0.783	1	0.698		
IA-LM	0.795	0.908	0.755	0.92	0.995	1.18	1	0.946	1.2						1.07	0.967	1.07	1.04	0.962	
NCI-H1793					0.652	1.12		0.744	0.759	0.4	0.555		0.469	0.489	0.745		1.06	0.629		
